According to patent publication EP1935986B1, “Luminogenic and fluorogenic compounds and methods to detect molecules or conditions” (priority 2005, dated 2006):

Tests used:
[1] = molecular target: T1, human recombinant monoamine oxidase B (MAO B) (Homo sapiens, UniProt P27338); assay: Two-step luminescent MAO assay with luciferin derivative; type: biochemical; conditions: fit of Tables 23-24 (TableCurve)
T1 construct: purchased Sigma Chemical Company M-7441; host or cells: baculovirus infected insect cells (microsomes)
T1 sequence (P27338 1-520): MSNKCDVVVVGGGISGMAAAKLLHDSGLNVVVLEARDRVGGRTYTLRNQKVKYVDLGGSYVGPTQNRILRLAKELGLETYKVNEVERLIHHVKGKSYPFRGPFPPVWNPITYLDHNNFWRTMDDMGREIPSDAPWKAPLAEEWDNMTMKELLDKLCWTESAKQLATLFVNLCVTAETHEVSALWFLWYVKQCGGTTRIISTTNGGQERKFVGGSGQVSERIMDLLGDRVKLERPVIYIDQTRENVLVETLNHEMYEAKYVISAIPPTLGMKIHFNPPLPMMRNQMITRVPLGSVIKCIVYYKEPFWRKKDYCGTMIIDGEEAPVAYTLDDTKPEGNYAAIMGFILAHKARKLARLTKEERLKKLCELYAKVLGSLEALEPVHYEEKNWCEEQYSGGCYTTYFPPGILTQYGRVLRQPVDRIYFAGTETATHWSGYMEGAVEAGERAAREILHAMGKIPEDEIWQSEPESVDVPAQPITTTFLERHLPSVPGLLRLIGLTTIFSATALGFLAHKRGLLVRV

[2] = molecular target: T2, human recombinant monoamine oxidase A (MAO A) (Homo sapiens, UniProt P21397); assay: as above; conditions: for RLUmax: fit of Tables 23-24 (TableCurve)
T2 sequence (P21397 1-527): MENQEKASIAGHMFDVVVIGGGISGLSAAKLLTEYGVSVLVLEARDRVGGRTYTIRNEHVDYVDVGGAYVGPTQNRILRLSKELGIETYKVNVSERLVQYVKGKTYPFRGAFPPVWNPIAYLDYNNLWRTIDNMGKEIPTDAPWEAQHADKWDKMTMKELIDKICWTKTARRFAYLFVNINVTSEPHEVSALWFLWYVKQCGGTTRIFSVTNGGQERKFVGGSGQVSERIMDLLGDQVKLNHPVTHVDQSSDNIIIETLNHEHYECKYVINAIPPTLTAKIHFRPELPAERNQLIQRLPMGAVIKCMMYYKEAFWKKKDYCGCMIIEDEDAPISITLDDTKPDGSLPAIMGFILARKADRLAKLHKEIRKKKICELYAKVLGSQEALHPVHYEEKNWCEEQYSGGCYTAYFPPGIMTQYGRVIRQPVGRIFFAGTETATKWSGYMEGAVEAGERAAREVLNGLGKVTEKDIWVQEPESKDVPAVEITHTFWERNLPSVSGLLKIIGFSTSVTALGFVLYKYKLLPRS

QuantiLum Luciferase = molecular target: T3, QuantiLum Luciferase (Photinus pyralis, UniProt P08659); assay: Scaffolds: light emission of luciferin derivatives with QuantiLum luciferase alone, + Co A, + DTT, + Co A and DTT; type: biochemical, firefly
T3 construct: purchased Promega Corporation E170
Description: The DTT, Coenzyme A, and QuantiLum stock solutions are the same as those described herein.
This solution was diluted 1:1 with water to produce an enzyme solution labeled "No addition." This solution was diluted 1:1 with 400 mM DTT, pH 8.0 to produce a solution labeled +DTT. This solution was diluted 1:1 with 4 mM Coenzyme A to produce a solution labeled + Co A. Finally, this solution was diluted 1:1 with a solution having both 4 mM Coenzyme A and 400 mM DTT to produce a solution labeled +Co A & DTT.
50 µl samples of these solutions were placed in the wells of luminometer microtiter plates, row A to row G, respeutivly. Row H of the plates was given 50 µl of water.
Reactions in these plates were initiated by addition of 50 µl of solution containing QuantiLum luciferase using a 12 channel micropipette. The solutions added to the rows were: columns 1, 5, and 9 - no addition solution; columns 2, 6, and 10 - + Co A solution; columns 3, 7, and 11 + DTT solution, and; columns 4, 8, and 12 - + Co A and DTT solution. After addition of the enzyme solution to the first row on every plate, a timer was started. After addition of the enzyme solution to the last row on each plate, the plate was sealed and read on a Veritas luminometer.

[3] = test system: human recombinant flavin-containing monooxygenase 3 (FMO 3); assay: Two-step luminescent FMO assay with luciferin derivative; type: biochemical
luciferase = assay: No-enzyme control: activity of luciferase towards the luciferin derivative (background luminescence); conditions: wild type microsomes instead of FMO 3

T3 sequence (P08659 whole entry): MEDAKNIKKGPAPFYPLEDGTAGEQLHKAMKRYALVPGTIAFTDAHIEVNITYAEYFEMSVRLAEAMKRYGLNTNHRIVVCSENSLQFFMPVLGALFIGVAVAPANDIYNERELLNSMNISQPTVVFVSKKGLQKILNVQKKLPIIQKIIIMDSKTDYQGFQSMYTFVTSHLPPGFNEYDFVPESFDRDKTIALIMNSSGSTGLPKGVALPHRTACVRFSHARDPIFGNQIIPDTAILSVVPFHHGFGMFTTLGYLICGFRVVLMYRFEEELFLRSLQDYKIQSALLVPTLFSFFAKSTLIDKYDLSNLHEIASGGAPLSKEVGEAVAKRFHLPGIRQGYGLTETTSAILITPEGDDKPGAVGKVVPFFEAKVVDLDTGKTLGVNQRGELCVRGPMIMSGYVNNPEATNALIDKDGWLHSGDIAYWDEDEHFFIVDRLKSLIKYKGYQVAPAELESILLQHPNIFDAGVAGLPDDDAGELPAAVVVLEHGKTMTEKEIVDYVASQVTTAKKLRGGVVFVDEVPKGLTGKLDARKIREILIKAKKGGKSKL

NCCCOc1ccc2nc(C3=N[C@@H](C(=O)O)CS3)sc2c1 [MAO-3, 6-Aminopropoxyluciferin]
RLUmax [1]: 660 | RLUmax [2]: 210 | light emission values (QuantiLum Luciferase; Derivative Conc. 1.07, Alone): 94583 | light emission values (QuantiLum Luciferase; Derivative Conc. 1.07, Co A): 122510 | light emission values (QuantiLum Luciferase; Derivative Conc. 1.07, Co A + DTT): 52637 | light emission values (QuantiLum Luciferase; Derivative Conc. 1.07, DTT): 111682 | light emission values (QuantiLum Luciferase; Derivative Conc. 3.13, Alone): 131633 | light emission values (QuantiLum Luciferase; Derivative Conc. 3.13, Co A): 176814 | light emission values (QuantiLum Luciferase; Derivative Conc. 3.13, Co A + DTT): 171233 | light emission values (QuantiLum Luciferase; Derivative Conc. 3.13, DTT): 200074 | light emission values (QuantiLum Luciferase; Derivative Conc. 6.25, Alone): 201597 | light emission values (QuantiLum Luciferase; Derivative Conc. 6.25, Co A): 321914 | light emission values (QuantiLum Luciferase; Derivative Conc. 6.25, Co A + DTT): 82531 | light emission values (QuantiLum Luciferase; Derivative Conc. 6.25, DTT): 348398 | light emission values (QuantiLum Luciferase; Derivative Conc. 12.5, Alone): 252130 | light emission values (QuantiLum Luciferase; Derivative Conc. 12.5, Co A): 467021 | light emission values (QuantiLum Luciferase; Derivative Conc. 12.5, Co A + DTT): 509896 | light emission values (QuantiLum Luciferase; Derivative Conc. 12.5, DTT): 525765 | light emission values (QuantiLum Luciferase; Derivative Conc. 25, Alone): 272608 | light emission values (QuantiLum Luciferase; Derivative Conc. 25, Co A): 588881 | light emission values (QuantiLum Luciferase; Derivative Conc. 25, DTT): 733675 | light emission values (QuantiLum Luciferase; Derivative Conc. 50, Alone): 179585 | light emission values (QuantiLum Luciferase; Derivative Conc. 50, Co A): 444494 | light emission values (QuantiLum Luciferase; Derivative Conc. 50, Co A + DTT): 865209 | light emission values (QuantiLum Luciferase; Derivative Conc. 50, DTT): 868903 | light emission values (QuantiLum Luciferase; Derivative Conc. 100, Alone): 348013 | light emission values (QuantiLum Luciferase; Derivative Conc. 100, Co A): 741882 | light emission values (QuantiLum Luciferase; Derivative Conc. 100, Co A + DTT): 1019425 | light emission values (QuantiLum Luciferase; Derivative Conc. 100, DTT): 994617

CNCCCOc1ccc2nc(C3=N[C@@H](C(=O)O)CS3)ccc2c1 [MAO-7, 6-(3-methylaminopropoxy)quinolinyl-lucifexin]
relative light units, FMO 3 ([3]; [MAO-7] 43 µM): 8220 RLUs | relative light units, net FMO 3 ([3]; [MAO-7] 43 µM): 7177 RLUs | relative light units, FMO 3 ([3]; [MAO-7] 86 µM): 13646 RLUs | relative light units, net FMO 3 ([3]; [MAO-7] 86 µM): 12061 RLUs | relative light units, FMO 3 ([3]; [MAO-7] 258 µM): 28987 RLUs | relative light units, net FMO 3 ([3]; [MAO-7] 258 µM): 25395 RLUs | relative light units, FMO 3 ([3]; [MAO-7] 344 µM): 34036 RLUs | relative light units, net FMO 3 ([3]; [MAO-7] 344 µM): 29550 RLUs | relative light units, FMO 3 ([3]; [MAO-7] 516 µM): 40329 RLUs | relative light units, net FMO 3 ([3]; [MAO-7] 516 µM): 34192 RLUs | relative light units, FMO 3 ([3]; [MAO-7] 688 µM): 42707 RLUs | relative light units, net FMO 3 ([3]; [MAO-7] 688 µM): 35494 RLUs | Km ([3]; fit of Table 33, CHES pH 9.5): 200 ± 20 µM | RLUmax [1]: 48 | relative light units, control (luciferase; [MAO-7] 43 µM): 1043 RLUs | relative light units, control (luciferase; [MAO-7] 86 µM): 1585 RLUs | relative light units, control (luciferase; [MAO-7] 258 µM): 3592 RLUs | relative light units, control (luciferase; [MAO-7] 344 µM): 4486 RLUs | relative light units, control (luciferase; [MAO-7] 516 µM): 6137 RLUs | relative light units, control (luciferase; [MAO-7] 688 µM): 7213 RLUs | RLUmax [2]: 750 | substrate specificity as indicated by the ratio RLUmax/Km ([2]; result in words): more specific substrate for MAO A
